The results in this text go back to US6300368A, “Anilide derivatives and antiarrhythmic agents containing the same” (priority 1998, dated 2001).

This assay deals with aconitin-induced atrial fibrillation. The assay can be described thus: Aconitin-induced atrial fibrillation model in anaesthetized dogs (Pharmacological Trial 1). Type of assay: in vivo, dog. To be noted: intravenous, anesthetized dogs, as hydrochloride; for minimal effective dose: Canis lupus familiaris, read-out: minimum dose level which suppresses atrial fibrillation. The method, then:
Pharmacological Trial 1: Evaluation of effectiveness in aconitin-induced atrial fibrillation model (dogs) Evaluation was performed according to K. Hashimoto (Jpn. J. Pharmacol., Vol. 46, 349-358, 1988) as follows:
Method: Dog was anesthetized and thoracotomy was made. Persistent atrial fibrillation was induced by placing a piece of filter paper impregnated with 0.5% aconitin solution (20 to 30 μl) on the right atrium. […] Onset and suppression of atrial fibrillation were monitored electrocardiographically by placing Ag--AgCl bipolar electrode on the right atrial auricle.
Results: Each compound in Examples 1 to 87 suppressed atrial fibrillation at least following dose level (all compounds were used in the form of hydrochloride).

Take “4'-[2-(Dimethylamino)ethoxy]-2,6-diethylbenzanilide [Example 7]”: the “minimum dose level which suppresses atrial fibrillation” value is 3.0 mg/kg.

In the case of “4'-[2-(Dipropylamino)ethoxy]-2,6-dimethoxybenzanilide [Example 15]”, the “minimum dose level which suppresses atrial fibrillation” value is listed as 10 mg/kg.

Consider `COc1cccc(OC)c1C(=O)Nc1ccc(OCCN)cc1.Cl` [Example 1, 4'-(2-aminoethoxy)-2,6-dimethoxybenzanilide Hydrochloride], for which the minimal effective dose was determined as 10 mg/kg.

On to `CCN(CC)CCOc1ccc(NC(=O)c2c(OC)cccc2OC)cc1.Cl` [Example 2, 4'-[2-(diethylamino)ethoxy]-2,6-dimethoxybenzanilide Hydrochloride], for which the minimal effective dose was found to be 10 mg/kg.

As for `CCNCCOc1ccc(NC(=O)C2CCOCC2)cc1.Cl` [Example 3, 4'-[2-(ethylamino)ethoxy]-3,4,5,6-tetrahydro-2H-pyran-4-carboxanilide Hydrochloride], the minimal effective dose turned out to be 10 mg/kg.

Turning to `COc1cc(NC(=O)c2c(OC)cccc2OC)ccc1OCCNC(C)C.Cl` [Example 4, 4'-[2-(isopropylamino)ethoxy]-2,6-dimethoxy-3'-methoxybenzanilide Hydrochloride], the minimal effective dose is 10 mg/kg.

`CC(C)NCCOc1ccc(NC(=O)c2ccccc2S(C)(=O)=O)cc1NS(C)(=O)=O.Cl` [Example 5, 4'-[2-(isopropylamino)ethoxy]-3'-methanesulfonamido-2-(methanesulfonyl)benzanilide Hydrochloride]: the minimal effective dose amounted to 10 mg/kg.

Turning to `Cc1cc(NC(=O)c2ccccc2NS(C)(=O)=O)cc(C)c1OCCNC(C)C.Cl` [Example 6, 4'-[2-(isopropylamino)ethoxy]-2-methanesulfonamido-3',5'-dimethylbenzanilide Hydrochloride], the minimal effective dose is 10 mg/kg.

Regarding `CCOc1cccc(OCC)c1C(=O)Nc1ccc(OCCN(CC)CC)cc1.Cl` [Example 8, 4'-[2-(Diethylamino)ethoxy]-2,6-diethoxybenzanilide Hydrochloride], the minimal effective dose was found to be 10 mg/kg.

Regarding `CCN(CC)CCOc1ccc(NC(=O)c2ccccc2NS(C)(=O)=O)cc1.Cl` [Example 9, 4'-[2-(Diethylamino)ethoxy]-2-(methanesulfonamido)benzanilide Hydrochloride], the minimal effective dose is 10 mg/kg.

Turning to `CCN(CC)CCOc1ccc(NC(=O)c2ccccc2NS(=O)(=O)CC)cc1.Cl` [Example 10, 4'-[2-(Diethylamino)ethoxy]-2-(ethanesulfon amido)benzanilide Hydrochloride], the minimal effective dose was found to be 3 mg/kg.

As for `CCCS(=O)(=O)Nc1ccccc1C(=O)Nc1ccc(OCCN(CC)CC)cc1.Cl` [Example 11, 4'-[2-(Diethylamino)ethoxy]-2-(propanesulfonamido)benzanilide Hydrochloride], the minimal effective dose amounted to 3 mg/kg.

As to `CCN(CC)CCOc1ccc(NC(=O)c2ccccc2NS(=O)(=O)C(C)C)cc1.Cl` [Example 12, 4'-[2-(Diethylamino)ethoxy]-2-(isopropanesulfonamido)benzanilide Hydrochloride], the minimal effective dose was determined as 3 mg/kg.

With `CCCN(CCC)CCOc1ccc(NC(=O)c2c(OC)cccc2OC)cc1` [Example 13, 4'-[2-(Dipropylamino)ethoxy]-2,6-dimethoxybenzanilide], the minimal effective dose is 10 mg/kg.

As to `CCCN(CCC)CCOc1ccc(NC(=O)c2c(C)cccc2C)cc1` [Example 14, 4'-[2-(Dipropylamino)ethoxy]-2,6-dimethylbenzanilide], the minimal effective dose stood at 3 mg/kg.

With `COc1cccc(OC)c1C(=O)Nc1ccc(OCCN2CCCC2)cc1` [Example 16, 2,6-Dimethoxy-4'-[2-(1-pyrrolidinyl)ethoxy]benzanilide], the minimal effective dose came to 10 mg/kg.

Consider `CS(=O)(=O)Nc1ccccc1C(=O)Nc1ccc(OCCN2CCCC2)cc1` [Example 17, 2-Methanesulfonamido-4'-[2-(1-pyrrolidinyl)ethoxy]benzanilide], for which the minimal effective dose stood at 10 mg/kg.

Consider `COc1cccc(OC)c1C(=O)Nc1ccc(OCCN2CCCCC2)cc1` [Example 18, 2,6-Dimethoxy-4'-(2-piperidinoethoxy)benzanilide], for which the minimal effective dose was found to be 10 mg/kg.

Take `Cc1cccc(C)c1C(=O)Nc1ccc(OCCN2CCOCC2)cc1` [Example 19, 2,6-Dimethyl-4'-(2morpholinoethoxy)benzanilide]: the minimal effective dose is 3 mg/kg.

Turning to `CCNCCOc1ccc(NC(=O)c2c(OC)cccc2OC)cc1.Cl` [Example 20, 4'-[(2-Ethylamino)ethoxy]-2,6-dimethoxybenzanilide Hydrochloride], the minimal effective dose is 10 mg/kg.

As for `CCNCCOc1ccc(NC(=O)c2ccccc2NS(C)(=O)=O)cc1.Cl` [Example 21, 4'-[(2-Ethylamino)ethoxy]-2-(methanesulfonamido) benzanilide Hydrochloride], the minimal effective dose is 10 mg/kg.

In the case of `CCNCCOc1ccc(NC(=O)c2ccccc2S(C)(=O)=O)cc1.Cl` [Example 22, 4'-[(2-Ethylamino)ethoxy]-2-(methanesulfonyl)benzanilide Hydrochloride], the minimal effective dose amounted to 3 mg/kg.

In the case of `CCNCCOc1ccc(NC(=O)C2CCOC2)cc1.Cl` (stereo not shown) [Example 23, 4'-[(2-Ethylamino)ethoxy]-2,3,4,5-tetrahydro-3-furanilide Hydrochloride], the minimal effective dose was 3 mg/kg.

`CCNCCOc1ccc(NC(=O)CCOC)cc1` [Example 24, 4'-[(2-Ethylamino)ethoxy]-3-methoxypropananilide]: the minimal effective dose is 10 mg/kg.

Take `CCNCCOc1ccc(NC(=O)c2ccoc2)cc1.Cl` [Example 25, 4'-[(2-Ethylamino)ethoxy]-3-furanilide Hydrochloride]: the minimal effective dose is 10 mg/kg.

As for `CCCNCCOc1ccc(NC(=O)c2c(OC)cccc2OC)cc1` [Example 26, 2,6-Dimethoxy-4'-[2-(propylamino)ethoxy]benzanilide], the minimal effective dose turned out to be 10 mg/kg.

In the case of `CCCNCCOc1ccc(NC(=O)C2CCOC2)cc1.Cl` (stereo not shown) [Example 27, 4'-[2-(Propylamino)ethoxy]-2,3,4,5-tetrahydro-3-furanilide Hydrochloride], the minimal effective dose is 3 mg/kg.

For the compound `CCCNCCOc1ccc(NC(=O)C2CCOCC2)cc1.Cl` [Example 28, 4'-[2-(Propylamino)ethoxy]-3,4,5,6-tetrahydro-2H-pyran-4-carboxanilide Hydrochloride], the minimal effective dose amounted to 3 mg/kg.

With `CC(C)NCCOc1ccc(NC(=O)c2ccccc2NS(C)(=O)=O)cc1.Cl` [Example 29, 4'-[2-(Isopropylamino)ethoxy]-2-(methanesulfonamido) benzanilide Hydrochloride], the minimal effective dose was determined as 0.3 mg/kg.

As for `COc1cccc(OC)c1C(=O)Nc1ccc(OCCNC(C)C)cc1` [Example 30, 4'-[2-(Isopropylamino)ethoxy]-2,6-dimethoxybenzanilide], the minimal effective dose was found to be 10 mg/kg.

In the case of `Cc1cccc(C)c1C(=O)Nc1ccc(OCCNC(C)C)cc1` [Example 31, 4'-[2-(Isopropylamino)ethoxy]-2,6-dimethylbenzanilide], the minimal effective dose worked out at 10 mg/kg.

For the compound `CC(C)NCCOc1ccc(NC(=O)c2ccccc2S(C)(=O)=O)cc1.Cl` [Example 32, 4'-[2-(Isopropylamino)ethoxy]-2-(methanesulfonyl) benzanilide Hydrochloride], the minimal effective dose stood at 10 mg/kg.

As to `CC(C)NCCOc1ccc(NC(=O)C2CCOC2)cc1.Cl` (stereo not shown) [Example 33, 4'-[2-(Isopropylamino)ethoxy]-2,3,4,5-tetrahydro-3-furanilide Hydrochloride], the minimal effective dose amounted to 10 mg/kg.

With `CC(C)NCCOc1ccc(NC(=O)C2CCOCC2)cc1.Cl` [Example 34, 4'-[2-(Isopropylamino)ethoxy]-3,4,5,6-tetrahydro-2H-pyran-4-carboxanilide Hydrochloride], the minimal effective dose came out at 3 mg/kg.

For the compound `CC(C)NCCOc1ccc(NC(=O)c2ccoc2)cc1.Cl` [Example 35, 4'-[2-(Isopropylamino)ethoxy]-3-furanilide Hydrochloride], the minimal effective dose was determined as 10 mg/kg.

On to `COCCC(=O)Nc1ccc(OCCNC(C)C)cc1.Cl` [Example 36, 4'-[2-(Isopropylamino)ethoxy]-3-methoxypropananilide Hydrochloride], for which the minimal effective dose was 10 mg/kg.

Regarding `CCCCNCCOc1ccc(NC(=O)c2c(OC)cccc2OC)cc1` [Example 37, 4'-[2-(Butylamino)ethoxy]-2,6-dimethoxybenzanilide], the minimal effective dose amounted to 3 mg/kg.

Take `COc1cccc(OC)c1C(=O)Nc1ccc(OCCNCC(C)C)cc1` [Example 38, 4'-[2-(Isobutylamino)ethoxy]-2,6-dimethoxybenzanilide]: the minimal effective dose was determined as 3 mg/kg.

Turning to `COc1cccc(OC)c1C(=O)Nc1ccc(OCCNC(C)(C)C)cc1` [Example 39, 2,6-Dimethoxy-4'-[2-(tert-butylamino)ethoxy]benzanilide], the minimal effective dose stood at 10 mg/kg.

Consider `CC(C)(C)NCCOc1ccc(NC(=O)c2ccccc2NS(C)(=O)=O)cc1` [Example 40, 2-Methanesulfonamido-4'-[2-(tert-butylamino)ethoxy]benzanilide], for which the minimal effective dose was 0.3 mg/kg.

Consider `COCCNCCOc1ccc(NC(=O)c2c(OC)cccc2OC)cc1` [Example 41, 4'-[2-[(2-Methoxyethyl)amino]ethoxy]-2,6-dimethoxy Benzanilide], for which the minimal effective dose worked out at 10 mg/kg.

Take `COCCNCCOc1ccc(NC(=O)c2ccccc2NS(C)(=O)=O)cc1` [Example 42, 2-Methanesulfonamido-4'-[2-[(2-methoxyethyl)amino]ethoxy]benzanilide]: the minimal effective dose was determined as 3 mg/kg.

As to `COCCNCCOc1ccc(NC(=O)C2CCOC2)cc1.Cl` (stereo not shown) [Example 43, 4'-[2-[(2-Methoxyethyl)amino]ethoxy]-2,3,4,5-tetrahydro-3-furanilide Hydrochloride], the minimal effective dose came to 10 mg/kg.
